This note sets out measurements from patent US10913727B2, “Modulators of the integrated stress pathway” (Calico Life Sciences LLC, priority 2016, dated 2021).

The subject of this experiment is HEK293T cells carrying the ATF4 luciferase reporter. As to the kind of experiment: ATF4-Luc assay, in vitro model of Vanishing Cell White Matter Disease (VWMD). Type of experiment: cell-based. The following applies: Homo sapiens, HEK-293T, 1 μg/mL tunicamycin, 7 hours, One Glo luminescence. The procedure, abridged:
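Compound at 200 nM and tunicamycin at 1 μg/mL were given together for 7 h to HEK293T cells stably transduced with an ATF4 5′-UTR-driven firefly luciferase reporter. Read-out by luminescence, reported as EC50.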
For the compound `Cn1cnc2cc(C(=O)NC34CC(NC(=O)COc5ccc(Cl)c(F)c5)(C3)C4)ccc2c1=O` [Compound 342, N-{3-[2-(4-chloro-3-fluorophenoxy)acetamido]bicyclo[1.1.1]pentan-1-yl}-3-methyl-4-oxo-3,4-dihydroquinazoline-7-carboxamide], the EC50 lay in the range of 0.25 to 1 µM.
As for `CCc1ncc(C(=O)NC23CC(NC(=O)COc4ccc(Cl)c(F)c4)(C2)C3)s1` [Compound 292, N-{3-[2-(4-chloro-3-fluorophenoxy)acetamido]bicyclo[1.1.1]pentan-1-yl}-2-ethyl-1,3-thiazole-5-carboxamide], the figure is 0.05 to 0.25 µM.
The value for `O=C(COc1ccc(Cl)c(F)c1)NC12CC(NC(=O)c3cccnc3-n3cccn3)(C1)C2` [Compound 807, N-{3-[2-(4-chloro-3-fluorophenoxy)acetamido]bicyclo[1.1.1]pentan-1-yl}-2-(1H-pyrazol-1-yl)pyridine-3-carboxamide] was over 2 µM; that for `CS(=O)(=O)c1cccc(C(=O)NC23CC(NC(=O)COc4ccc(Cl)c(F)c4)(C2)C3)c1` [Compound 813, N-{3-[2-(4-chloro-3-fluorophenoxy)acetamido]bicyclo[1.1.1]pentan-1-yl}-3-(methanesulfonyl)benzamide] was over 2 µM.
Regarding `O=C(COc1ccc(Cl)c(F)c1)NC12CC(NC(=O)c3ccccc3)(C1)C2` [Compound 198, N-{3-[2-(4-chloro-3-fluorophenoxy)acetamido]bicyclo[1.1.1]pentan-1-yl}benzamide], the concentration for a half-maximal effect (EC50) was in the range of 0.05 to 0.25 µM.
As to `O=C(COc1ccc(Cl)c(F)c1)NC12CCC(NC(=O)c3cnccn3)(CC1)C[C@@H]2O` [Compound 670, N-{(3S)-4-[2-(4-chloro-3-fluorophenoxy)acetamido]-3-hydroxybicyclo[2.2.2]octan-1-yl}pyrazine-2-carboxamide], the EC50 is under 0.05 µM.
The value for `O=C(COc1ccc(Cl)c(F)c1)NC12CCC(NC(=O)c3ccccc3C(=O)O)(CC1)CC2O` (stereo not drawn) [Compound 656, 2-({4-[2-(4-chloro-3-fluorophenoxy)acetamido]-3-hydroxybicyclo[2.2.2]octan-1-yl}carbamoyl)benzoic acid] was over 2 µM.
The value for `Cc1ccc(C(=O)NC23CC(NC(=O)COc4ccc(Cl)c(F)c4)(C2)C3)o1` [Compound 555, N-{3-[2-(4-chloro-3-fluorophenoxy)acetamido]bicyclo[1.1.1]pentan-1-yl}-5-methylfuran-2-carboxamide] was 0.05 to 0.25 µM; that for `O=C(COc1ccc(Cl)c(F)c1)NC12CCC(NC(=O)c3ccsc3)(CC1)CC2O` (stereo not drawn) [Compound 591, N-{4-[2-(4-chloro-3-fluorophenoxy)acetamido]-3-hydroxybicyclo[2.2.2]octan-1-yl}thiophene-3-carboxamide] was 0.05 to 0.25 µM.
As for `CCOc1ncccc1C(=O)NC12CC(NC(=O)COc3ccc(Cl)c(F)c3)(C1)C2` [Compound 861, N-{3-[2-(4-chloro-3-fluorophenoxy)acetamido]bicyclo[1.1.1]pentan-1-yl}-2-ethoxypyridine-3-carboxamide], the figure is over 2 µM; as for `Cc1nc(C(=O)NC23CC(NC(=O)COc4ccc(Cl)c(F)c4)(C2)C3)co1` [Compound 249, N-{3-[2-(4-chloro-3-fluorophenoxy)acetamido]bicyclo[1.1.1]pentan-1-yl}-2-methyl-1,3-oxazole-4-carboxamide], 0.05 to 0.25 µM; as for `CC(C)(C)[Si](C)(C)OCCOc1ccc(C(=O)NC23CC(NC(=O)COc4ccc(Cl)c(F)c4)(C2)C3)cn1` [Compound 157, 6-(2-{[tert-butyl(dimethyl)silyl]oxy}ethoxy)-N-{3-[2-(4-chloro-3-fluorophenoxy)acetamido]bicyclo[1.1.1]pentan-1-yl}pyridine-3-carboxamide], over 2 µM.
For the compound `O=C(COc1ccc(Cl)c(F)c1)NC12CC(Nc3nccn4ncnc34)(C1)C2` [Compound 448, 2-(4-chloro-3-fluorophenoxy)-N-{3-[([1,2,4]triazolo[1,5-a]pyrazin-8-yl)amino]bicyclo[1.1.1]pentan-1-yl}acetamide], the EC50 was 1 to 2 µM.
The value for `Cc1nc(C)c(C(=O)NC23CCC(NC(=O)COc4ccc(Cl)c(F)c4)(CC2)C(O)C3)s1` (stereo not drawn) [Compound 446, N-{4-[2-(4-chloro-3-fluorophenoxy)acetamido]-3-hydroxybicyclo[2.2.2]octan-1-yl}-2,4-dimethyl-1,3-thiazole-5-carboxamide] was 0.25 to 1 µM; that for `O=C(COc1ccc(Cl)c(F)c1)NC12CC(NC(=O)c3ccoc3)(C1)C2` [Compound 305, N-{3-[2-(4-chloro-3-fluorophenoxy)acetamido]bicyclo[1.1.1]pentan-1-yl}furan-3-carboxamide] was 0.25 to 1 µM; that for `Cc1nnsc1C(=O)NC12CC(NC(=O)COc3ccc(Cl)c(F)c3)(C1)C2` [Compound 845, N-{3-[2-(4-chloro-3-fluorophenoxy)acetamido]bicyclo[1.1.1]pentan-1-yl}-4-methyl-1,2,3-thiadiazole-5-carboxamide] was over 2 µM.
The value for `O=C(COc1ccc(F)c(F)c1)NC12CC(NC(=O)c3ccc(OC(F)(F)F)nc3)(C1)C2` [Compound 277, N-{3-[2-(3,4-difluorophenoxy)acetamido]bicyclo[1.1.1]pentan-1-yl}-6-(trifluoromethoxy)pyridine-3-carboxamide] was 1 to 2 µM; that for `O=C(COc1ccc(Cl)c(F)c1)NC12CC(NC(=O)c3ccncn3)(C1)C2` [Compound 187, N-{3-[2-(4-chloro-3-fluorophenoxy)acetamido]bicyclo[1.1.1]pentan-1-yl}pyrimidine-4-carboxamide] was 1 to 2 µM; that for `O=C(COc1ccc(Cl)c(F)c1)NC12CCC(NC(=O)c3cnc(C(F)F)cn3)(CC1)C(O)C2` (stereo not drawn) [Compound 195, N-{4-[2-(4-chloro-3-fluorophenoxy)acetamido]-2-hydroxybicyclo[2.2.2]octan-1-yl}-5-(difluoromethyl)pyrazine-2-carboxamide] was under 0.05 µM.
Turning to `Cc1nc(C(F)(F)F)c(C(=O)NC23CC(NC(=O)COc4ccc(Cl)c(F)c4)(C2)C3)s1` [Compound 837, N-{3-[2-(4-chloro-3-fluorophenoxy)acetamido]bicyclo[1.1.1]pentan-1-yl}-2-methyl-4-(trifluoromethyl)-1,3-thiazole-5-carboxamide], the concentration giving a half-maximal response (EC50) was over 2 µM.
The value for `O=C(COc1ccc2c(c1)OC(F)(F)O2)NC12CC(NC(=O)c3ccncc3)(C1)C2` [Compound 418, N-(3-{2-[(2,2-difluoro-2H-1,3-benzodioxol-5-yl)oxy]acetamido}bicyclo[1.1.1]pentan-1-yl)pyridine-4-carboxamide] was over 2 µM; that for `Cc1cnc(C(=O)NC23CC(NC(=O)COc4ccc(Cl)cc4)(C2)C3)cn1` [Compound 136, N-{3-[2-(4-chlorophenoxy)acetamido]bicyclo[1.1.1]pentan-1-yl}-5-methylpyrazine-2-carboxamide] was 0.25 to 1 µM.
Take `Cc1cc(C(=O)NC23CC(NC(=O)COc4ccc(Cl)c(F)c4)(C2)C3)on1` [Compound 295, N-{3-[2-(4-chloro-3-fluorophenoxy)acetamido]bicyclo[1.1.1]pentan-1-yl}-3-methyl-1,2-oxazole-5-carboxamide]: the EC50 fell in the range of 0.25 to 1 µM.
The value for `O=C(COc1ccc(Cl)c(F)c1)NC12CC(NC(=O)c3ccc(F)c(F)c3)(C1)C2` [Compound 514, N-{3-[2-(4-chloro-3-fluorophenoxy)acetamido]bicyclo[1.1.1]pentan-1-yl}-3,4-difluorobenzamide] was 0.05 to 0.25 µM; that for `CCOc1ccccc1C(=O)NC12CC(NC(=O)COc3ccc(Cl)c(F)c3)(C1)C2` [Compound 538, N-{3-[2-(4-chloro-3-fluorophenoxy)acetamido]bicyclo[1.1.1]pentan-1-yl}-2-ethoxybenzamide] was under 0.05 µM; that for `CN(C)Cc1ccc(C(=O)NC23CC(NC(=O)COc4ccc(Cl)c(F)c4)(C2)C3)cc1` [Compound 546, N-{3-[2-(4-chloro-3-fluorophenoxy)acetamido]bicyclo[1.1.1]pentan-1-yl}-4-[(dimethylamino)methyl]benzamide] was over 2 µM.
As for `O=C(COc1ccc(Cl)c(F)c1)NC12CC(Nc3cncc(N4CCOCC4)n3)(C1)C2` [Compound 744, 2-(4-chloro-3-fluorophenoxy)-N-(3-{[6-(morpholin-4-yl)pyrazin-2-yl]amino}bicyclo[1.1.1]pentan-1-yl)acetamide], the figure is 0.25 to 1 µM; as for `Cn1ccc(C(=O)NC23CC(NC(=O)COc4ccc(Cl)c(Cl)c4)(C2)C3)n1` [Compound 713, N-{3-[2-(3,4-dichlorophenoxy)acetamido]bicyclo[1.1.1]pentan-1-yl}-1-methyl-1H-pyrazole-3-carboxamide], 0.05 to 0.25 µM.
The value for `N#Cc1cccc(C(=O)NC23CC(NC(=O)COc4ccc(Cl)c(F)c4)(C2)C3)c1` [Compound 366, N-{3-[2-(4-chloro-3-fluorophenoxy)acetamido]bicyclo[1.1.1]pentan-1-yl}-3-cyanobenzamide] was 0.05 to 0.25 µM.
On to `O=C(COc1ccc(Cl)c(F)c1)NC12CCC(NC(=O)c3cc(C4CCCCC4)no3)(CC1)CC2O` (stereo not drawn) [Compound 408, N-{4-[2-(4-chloro-3-fluorophenoxy)acetamido]-3-hydroxybicyclo[2.2.2]octan-1-yl}-3-cyclohexyl-1,2-oxazole-5-carboxamide], for which the 50% effective concentration (EC50) was over 2 µM.
The value for `N#Cc1cnc(NC23CC(NC(=O)COc4ccc(Cl)c(F)c4)(C2)C3)cn1` [Compound 720, 2-(4-chloro-3-fluorophenoxy)-N-{3-[(5-cyanopyrazin-2-yl)amino]bicyclo[1.1.1]pentan-1-yl}acetamide] was over 2 µM; that for `O=C(COc1ccc(Cl)c(F)c1)NC12CCC(NC(=O)c3cccnc3)(CC1)C(O)C2` (stereo not drawn) [Compound 217, N-{4-[2-(4-chloro-3-fluorophenoxy)acetamido]-2-hydroxybicyclo[2.2.2]octan-1-yl}pyridine-3-carboxamide] was 1 to 2 µM.
With `Cc1cc(C(=O)NC23CC(NC(=O)COc4ccc(Cl)c(F)c4)(C2)C3)c(C)n1C1CC1` [Compound 842, N-{3-[2-(4-chloro-3-fluorophenoxy)acetamido]bicyclo[1.1.1]pentan-1-yl}-1-cyclopropyl-2,5-dimethyl-1H-pyrrole-3-carboxamide], the EC50 was over 2 µM.

A word on the EC50: it is the concentration that produces a half-maximal response.
